Patent publication US20220409617A1, “Drug Formulations and Methods of Treatment for Metabolic Disorders” (The Regents of the University of California, priority 2019, published 2022)

Experiments:
[1] = Fasting blood glucose and oral glucose tolerance test in HFD-fed mice; format: in vivo, mouse
Description: Mice were fasted for 6 h prior to blood glucose testing at ZT10. When sphingolipid-like compound 893 treatment was combined with an OGTT, mice were treated at ZT6. Once baseline fasting blood glucose was determined using a handheld blood glucose meter (Prodigy Diabetes Care, Charlotte, N.C.) and a drop of blood collected from a tail vein nick, mice were gavaged with an oral glucose solution (20% w/v in water, 2 g/kg bodyweight) and blood glucose measured in a drop of tail vein blood at 0, 15, 30, 60 and 120 min. The area under the curve was determined using Graphpad Prism software.

[2] = system: mouse embryonic fibroblasts (MEFs); test: Ceramide-induced (C16:0 CER, C2-ceramide) mitochondrial fragmentation; format: cell-based; details: MEFs, 893 5 μM
Description: 3T3-L1 cells were maintained in DMEM with 10% FBS and 1% penicillin-streptomycin until induced to differentiate. 3T3-L1 pre-adipocytes were differentiated as described in (M. P. Valley, et al., Anal. Biochem. 505: 43-50, 2016, the disclosure of which is incorporated herein by reference) with slight modifications. Briefly, pre-adipocytes were grown to confluence. After 2 d, cells were induced with maintenance media containing 500 μM IBMX (15879, Sigma-Aldrich, St. Louis, Mo.), 1 μM dexamethasone (D4902, Sigma-Aldrich), 5 μg/mL bovine insulin (10516, Sigma-Aldrich), and 5 μM troglitazone (50-115-0786, ApexBio). Media was changed every 2-3 d for 7 d. On day 7 post-induction, media was changed to maintenance media+5 μg/mL bovine insulin. On day 9 post-induction, media was changed to maintenance media. Mature adipocytes were used 12-14 d post-induction for all experiments. LSL-KrasG12D mouse embryonic fibroblasts (MEFs) with and without Cre-mediated deletion of the STOP cassette were obtained from David Tuveson (Cold Spring Harbor Laboratory, Cold Spring Harbor N.Y., USA) in 2000. p53^flox/flox MEFs were derived in house (2015) from C57BL/6 mice using standard techniques and immortalized by transient expression of Cre recombinase and deletion of p53. MEFs were cultured and maintained in DMEM with 10% FBS and 1% penicillin-streptomycin. A549 cells were cultured in DMEM with 10% FBS, 1% penicillin-streptomycin and 1% sodium pyruvate. Stock solution of palmitic acid (ACROS Organics, cat # AC129702500) was prepared at 100 mM in ethanol. Palmitate (250 μM) was conjugated to 1% (w/v) fatty-acid free bovine serum albumin (Sigma, A8806) in DMEM at 37° C. for 20 min. For all immunofluorescence assays, 8,000 MEFs were seeded into 8-chamber slides (Cellvis, cat # C8-1.5H-N) 12-16 h before treatment. Cells were pre-treated with sphingolipid-like compound 893 (5 μM in water), myriocin (10 μM in methanol), fumonisin-B1 (30 μM in DMSO), or celastrol (500 nM in DMSO) for 3 h followed by a 3 h treatment with BSA-conjugated palmitate mixture or BSA alone. Where cells were treated with C2-ceramide (50 μM in DMSO) or C16:0 ceramide (100 μM in ethanol) for 3 h, cells were pre-treated with sphingolipid-like compound 893 for 1-3 h as indicated, mdivi-1 (50 μM in DMSO) for 1 h or 24 h, M1 (5 μM in DMSO) for 24 h, mdivi-1 and M1 together for 24 h, leflunomide (50 μM in methanol) for 1 h or 24 h, or with P110 (1 μM in water) for 1 h or 12 h. LSL or KRAS^G12D MEFs were treated with sphingolipid-like compound 893 (5 μM) for 6 h prior to fixation.
MEFs were washed twice with PBS and fixed with 4% paraformaldehyde for 10 min at RT. Cells were permeabilized with 0.3% Triton X-100 in blocking buffer containing 10% fetal bovine serum for 20 min at 37° C. followed by overnight incubation with mouse anti-citrate synthase (sc-390693, Santa Cruz Biotechnology; dilution, 1:200) or rabbit-anti-DRP1 at 1:100 (#8570, Cell Signaling Technology) at 4° C. Cells were then washed twice with PBS and incubated with AlexaFluor 488 goat anti-mouse (A28175, Invitrogen) or AlexaFluor 594 donkey anti-rabbit (A32754, Invitrogen) secondary antibodies at RT followed by 5 min incubation with 1 μg/ml DAPI and 2 washes in PBS. For NADH autofluorescence studies, mice were gavaged with vehicle or 120 mg/kg sphingolipid-like compound 893 at ZT8.5 (4-10.5 h before sacrifice between ZT12.5 and ZT18). Post sacrifice, livers were excised, washed 3× with PBS, placed in DMEM supplemented with 10% FBS and 1% penicillin-streptomycin, and immediately imaged. NADH/NADPH autofluorescence was detected with 740 nm excitation and 450±50 nm detectors using a Mai Tai two-photon laser. Fluorescence microscopy was performed on a Zeiss LSM 780 confocal using a 63× oil objective with a […] numerical aperture (NA) or using a Nikon TE2000-S inverted epifluorescence microscope with a 100× oil objective (1.3 NA) and a Photometrics CoolSNAP ES2 monochrome CCD camera. […]

## CCCCCCCCc1ccc([C@H]2CCN[C@@H]2CO)cc1.Cl [compound 893]
[1]; 60 mg/kg three days a week for 25 days
  Fasting glucose and glucose disposal (OGTT): intermediate effect
[1]; 120 mg/kg three days a week for 25 days
  Fasting glucose and glucose disposal (OGTT): normalized both fasting glucose and glucose disposal
[2]
  Pre-treatment time after which the compound was effective against C16:0 ceramide-induced fragmentation: 1 h
[2]; C16:0 CER 100 μM or C2-ceramide 50 μM 3 h, mdivi-1 50 μM, M1 5 μM, leflunomide 50 μM, P110 1 μM
  Protection from ceramide-induced mitochondrial fragmentation: blocked ceramide-induced mitochondrial fragmentation
